We go through 57 compounds from patent publication US10538532B2, “Hepatitis B antiviral agents” (ENANTA PHARMACEUTICALS, INC., priority 2016, dated 2020).

Broadly, the EC50 is the concentration giving half of the maximal effect.

The test system of the first test is HBV. The experiment in a line: HepAD38 antiviral assay: reduction of viral product accumulation (virion DNA by qPCR, HBsAg or HBeAg by ELISA). It counts as cell-based, hepatitis B virus. The settings on record: HepAD38 cells, five days after compound addition; concentration reducing viral product accumulation by 50% relative to no drug controls; read-out: HepAD38 EC50. Put shortly:
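EC50 values represent 50% reduction of viral product accumulation in lysates or supernatants relative to untreated controls, with virion DNA read by qPCR and HBsAg/HBeAg by ELISA. Measurements followed 5 days of treatment, or 8 days with compound renewed on d2 and d5. Cells were tetracycline-depleted HepAD38 at 35,000/well, dosed with a 1:200 dilution of DMSO stocks.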
In general terms: Real-time PCR tracks product formation cycle by cycle.
Take `O=C(Nc1cc(F)c(F)c(F)c1)c1ccc(Cl)c(S(=O)(=O)[C@H]2CC3CCC(C2)[C@]3(O)CO)c1` [Example 208]: the EC50 was above 400 nM. For the compound `O=C(Nc1cc(F)c(F)c(F)c1)c1ccc(Cl)c(S(=O)(=O)C2CC3CCC(C2)C3=O)c1` (stereo not drawn) [Example 206], the concentration for a half-maximal effect (EC50) is above 400 nM.

Still in this test, the particulars now being: Hepatitis B virus, HePAD38, 120 h, HepAD38 cells, five days after compound addition; concentration reducing viral product accumulation by 50% relative to no drug controls; read-out: HepAD38 EC50.
On to `O=C(Nc1ccc(F)cc1)c1ccc(Cl)c(S(=O)(=O)[C@H]2CC[C@H](O)CC2)c1` [Example 66], for which the EC50 was above 400 nM. Take `CCOC(=O)C(Cc1ccncc1)S(=O)(=O)c1cc(C(=O)Nc2cc(F)c(F)c(F)c2)ccc1Cl` (stereo not drawn) [Example 103]: the EC50 was above 400 nM.

As for `CS(=O)(=O)OC[C@]1(O)CC2CC[C@@H](C1)[C@H]2S(=O)(=O)c1cc(C(=O)Nc2cc(F)c(F)c(F)c2)ccc1Cl` [Example 142], the 50% effective concentration (EC50) is below 100 nM. For the compound `O=C(Nc1cc(F)c(F)c(F)c1)c1ccc(Cl)c(S(=O)(=O)[C@H]2C3CC[C@H]2C[C@H](c2cc(-c4ccccc4)on2)C3)c1` [Example 239], the half-maximal effective concentration (EC50) was below 100 nM. As to `C[C@@]1(O)CC2CC[C@@H](C1)[C@H]2S(=O)(=O)c1cc(C(=O)Nc2cc(F)c(F)c(F)c2)ccc1Cl` [Example 247], the half-maximal effective concentration (EC50) was below 100 nM.

Consider `O=C(Nc1cc(F)c(F)c(F)c1)c1ccc(Cl)c(S(=O)(=O)[C@H]2C3CC[C@H]2C[C@](O)(COCc2ccncc2)C3)c1` [Example 316], for which the EC50 lay in the range of 100 to 400 nM. Turning to `CC(CO)NCCOC[C@]1(O)CC2CC[C@@H](C1)[C@H]2S(=O)(=O)c1cc(C(=O)Nc2cc(F)c(F)c(F)c2)ccc1Cl` (stereo partly drawn) [Example 358], the concentration for a half-maximal effect (EC50) lay in the range of 100 to 400 nM. Same read-out and setting: then `O=C(Nc1cc(F)c(F)c(F)c1)c1ccc(Cl)c(S[C@H]2C3CC4C[C@H](C3)C[C@@H]2C4)c1` [Example 174], with above 400 nM.

With `O=C(Nc1cc(F)c(F)c(F)c1)c1ccc(Cl)c(S(=O)(=O)[C@@H]2CC[C@H](O)C2)c1` [Example 31], the 50% effective concentration (EC50) lay within 100 to 400 nM. As to `O=C(Nc1cc(F)c(F)c(F)c1)c1ccc(Cl)c(S(=O)(=O)[C@H]2C3CC[C@H]2C[C@H](Cn2cccn2)C3)c1` [Example 311], the concentration giving a half-maximal response (EC50) was below 100 nM. In the case of `CCOC(=O)C(C)S(=O)(=O)c1cc(C(=O)Nc2cc(F)c(F)c(F)c2)ccc1Cl` (stereo not drawn) [Example 94], the EC50 is above 400 nM. `O=C(Nc1cc(F)c(F)c(F)c1)c1ccc(Cl)c(S(=O)(=O)[C@H]2C3CC[C@H]2C[C@](O)(/C=N/OCc2ccc([N+](=O)[O-])cc2)C3)c1` [Example 234]: the EC50 fell in the range of 100 to 400 nM. Same read-out and setting: the value for `CC(=O)N1C[C@]2(OC1(C)C)C1CCC2C[C@@H](S(=O)(=O)c2cc(C(=O)Nc3cc(F)c(F)c(F)c3)ccc2Cl)C1` [Example 346] was below 100 nM; that for `O=C(Nc1cc(F)c(F)c(F)c1)c1ccc(Cl)c(S(=O)(=O)C[C@H]2CC[C@H](O)CC2)c1` [Example 111] was below 100 nM; that for `CCCS(=O)(=O)c1cc(C(=O)Nc2cc(F)c(F)c(F)c2)ccc1Cl` [Example 15] was 100 to 400 nM. As for `CC(C)(C)OC(=O)NCC(=O)NC[C@]1(O)C2CCC1C[C@@H](S(=O)(=O)c1cc(C(=O)Nc3cc(F)c(F)c(F)c3)ccc1Cl)C2` [Example 348], the concentration for a half-maximal effect (EC50) was below 100 nM. `O=C(Nc1cc(F)c(F)c(F)c1)c1ccc(Cl)c(S(=O)(=O)[C@H]2C3CC[C@H]2C[C@](O)(/C=N/OCc2ccccc2F)C3)c1` [Example 244]: the EC50 was below 100 nM.

`O=C(Nc1cc(F)c(F)c(F)c1)c1ccc(Cl)c(S(=O)(=O)[C@H]2C3CC[C@H]2C[C@](O)(COCC2CO2)C3)c1` (stereo partly drawn) [Example 328]: the concentration for a half-maximal effect (EC50) is below 100 nM. Turning to `CC(O)[C@]1(O)CC2CC[C@@H](C1)[C@H]2S(=O)(=O)c1cc(C(=O)Nc2cc(F)c(F)c(F)c2)ccc1Cl` (stereo partly drawn) [Example 136], the concentration giving a half-maximal response (EC50) is below 100 nM. Regarding `CN(C)[C@H]1CC[C@H](S(=O)(=O)c2cc(C(=O)Nc3cc(F)c(F)c(F)c3)ccc2Cl)CC1` [Example 73], the concentration giving a half-maximal response (EC50) is above 400 nM. The same measure, in the same setting: then `Cc1c(NC(=O)c2ccc(Cl)c(S(=O)(=O)[C@]3(C)CC[C@@H](O)CC3)c2)cc(F)c(F)c1F` [Example 19], with above 400 nM; and `O=C(Nc1cc(F)c(F)c(F)c1)c1ccc(Cl)c(S(=O)(=O)[C@H]2C3CC[C@H]2C[C@](O)(COC/C=C/c2ccncc2)C3)c1` [Example 326], with above 400 nM.

With `O=C(Nc1cc(F)c(F)c(F)c1)c1ccc(Cl)c(S(=O)(=O)C[C@H]2C3CC[C@H]2C[C@](O)(CO)C3)c1` [Example 177], the EC50 was below 100 nM. On to `O=C(Nc1cc(F)c(F)c(F)c1)c1ccc(Cl)c(Sc2ccccc2)c1` [Example 71], for which the EC50 was above 400 nM.

`O=C(Nc1cc(F)c(F)c(-n2cccn2)c1)c1ccc(Cl)c(S(=O)(=O)[C@H]2C3CC[C@H]2C[C@](O)(Cn2cccn2)C3)c1` [Example 333]: the half-maximal effective concentration (EC50) was above 400 nM. With `O=C(Nc1cc(F)c(F)c(F)c1)c1ccc(Cl)c(S(=O)(=O)[C@H]2C3CC[C@H]2C[C@](O)(/C=[N+](\[O-])Cc2ccccc2)C3)c1` [Example 199], the half-maximal effective concentration (EC50) was in the range of 100 to 400 nM.

With `CC1(C)O[C@H]2[C@H](CO[C@@H]2CS(=O)(=O)c2cc(C(=O)Nc3cc(F)c(F)c(F)c3)ccc2Cl)O1` [Example 107], the 50% effective concentration (EC50) was above 400 nM. For the compound `CCOC(OCC)[C@]1(O)CC2CC[C@@H](C1)[C@H]2S(=O)(=O)c1cc(C(=O)Nc2cc(F)c(F)c(F)c2)ccc1Cl` [Example 197], the 50% effective concentration (EC50) fell in the range of 100 to 400 nM. As for `COC(=O)C1CON(C)[C@@]12CC1CC[C@@H](C2)[C@H]1S(=O)(=O)c1cc(C(=O)Nc2cc(F)c(F)c(F)c2)ccc1Cl` (stereo partly drawn) [Example 217], the concentration for a half-maximal effect (EC50) is above 400 nM.

As for `O=C(Nc1ccc(F)c(F)c1)c1ccc(Cl)c(S(=O)(=O)[C@H]2CC[C@H](O)CC2)c1` [Example 51], the EC50 was 100 to 400 nM. For `O=C(Nc1cc(F)c(F)c(F)c1)c1ccc(Cl)c(S[C@H]2C3CC[C@H]2C[C@](O)(CO)C3)c1` [Example 134], the concentration for a half-maximal effect (EC50) was in the range of 100 to 400 nM.

Turning to `C=CCOC[C@]1(O)CC2CC[C@@H](C1)[C@H]2S(=O)(=O)c1cc(C(=O)Nc2cc(F)c(F)c(F)c2)ccc1Cl` [Example 270], the EC50 was below 100 nM.

Consider `CCCSc1cc(C(=O)Nc2cc(F)c(F)c(F)c2)ccc1Cl` [Example 13], for which the EC50 was above 400 nM.

Consider `O=C(Nc1cc(F)c(F)c(F)c1)c1ccc(Cl)c(S[C@@H]2C[C@H](O)C[C@H](O)C2)c1` [Example 78], for which the concentration for a half-maximal effect (EC50) was above 400 nM. As to `O=C(Nc1cc(F)c(F)c(F)c1)c1ccc(Cl)c(S(=O)(=O)[C@H]2CC3CCC(C2)[C@]3(O)CC(O)CO)c1` (stereo partly drawn) [Example 361], the EC50 was below 100 nM.

On to `CN1CCC(S(=O)(=O)c2cc(C(=O)Nc3cc(F)c(F)c(F)c3)ccc2Cl)CC1` [Example 96], for which the concentration for a half-maximal effect (EC50) was above 400 nM. Same read-out and setting: the value for `O=C(Nc1cc(F)c(F)c(F)c1)c1ccc(Cl)c(S(=O)(=O)[C@H]2C3CC[C@H]2C[C@](O)(Cn2ccnc2)C3)c1` [Example 314] was below 100 nM; that for `CO[C@]1(CO)CC2CC[C@@H](C1)[C@H]2S(=O)(=O)c1cc(C(=O)Nc2cc(F)c(F)c(F)c2)ccc1Cl` [Example 152] was below 100 nM; that for `O=C(Nc1cc(F)c(F)c(F)c1)c1ccc(Cl)c(S(=O)(=O)C2CC[C@H](O)[C@H](O)C2)c1` (stereo partly drawn) [Example 70] was 100 to 400 nM. As for `O=C(Nc1cc(F)c(F)c(F)c1)c1ccc(Cl)c(S(=O)(=O)C[C@H]2C[C@@H](O)C2)c1` [Example 105], the concentration for a half-maximal effect (EC50) fell in the range of 100 to 400 nM. As for `O=C(Nc1cc(F)c(F)c(F)c1)c1ccc(Cl)c(S(=O)(=O)[C@H]2CC3CCC(C2)[C@H]3CO)c1` [Example 249], the concentration for a half-maximal effect (EC50) was 100 to 400 nM. For `O=C(Nc1cc(F)c(F)c(F)c1)c1ccc(Cl)c(S(=O)(=O)[C@@H]2CCC[C@H](O)C2)c1` (racemic) [Example 58], the EC50 was above 400 nM.

Consider `O=C(Nc1cc(F)c(F)c(F)c1)c1ccc(Cl)c(S(=O)(=O)C2CC[C@@H](O)[C@@H](O)CC2)c1` (stereo partly drawn) [Example 83], for which the concentration giving a half-maximal response (EC50) was 100 to 400 nM. For `C=C1CC2CCC(C1)C2S(=O)(=O)c1cc(C(=O)Nc2cc(F)c(F)c(F)c2)ccc1Cl` (stereo not drawn) [Example 49], the EC50 is 100 to 400 nM.

Take `O=C(Nc1cc(F)c(F)c(F)c1)c1ccc(Cl)c(S(=O)(=O)[C@H]2CC3CCC(C2)[C@@H]3CO)c1` [Example 250]: the EC50 was above 400 nM. `O=C(Nc1cc(F)c(F)c(F)c1)c1ccc(Cl)c(S(=O)(=O)C2(CCCO)CCCCC2)c1` [Example 88]: the concentration giving a half-maximal response (EC50) is above 400 nM. Same read-out and setting: the value for `N#CC1CON(Cc2ccccc2)C1[C@]1(O)CC2CC[C@@H](C1)[C@H]2S(=O)(=O)c1cc(C(=O)Nc2cc(F)c(F)c(F)c2)ccc1Cl` (stereo partly drawn) [Example 209] was above 400 nM; that for `C[C@H](N)C(=O)NC[C@]1(O)C2CCC1C[C@@H](S(=O)(=O)c1cc(C(=O)Nc3cc(F)c(F)c(F)c3)ccc1Cl)C2` [Example 351] was 100 to 400 nM. Turning to `O=C(Nc1cc(F)c(F)c(F)c1)c1ccc(Cl)c(S(=O)(=O)[C@H]2CC3CCC(C2)[C@]3(O)c2ccc(F)cn2)c1` [Example 323], the EC50 is below 100 nM. As to `O=C(Nc1cc(F)c(F)c(F)c1)c1ccc(Cl)c(S(=O)(=O)C[C@@H]2C3CC[C@H]2C[C@H](O)C3)c1` [Example 193], the EC50 is 100 to 400 nM. Consider `CC(C)(C)OC(=O)N1CCC[C@H]1C(=O)NC[C@]1(O)C2CCC1C[C@@H](S(=O)(=O)c1cc(C(=O)Nc3cc(F)c(F)c(F)c3)ccc1Cl)C2` [Example 365], for which the EC50 was below 100 nM.

Regarding `O=C(Nc1cc(F)c(F)c(F)c1)c1ccc(Cl)c([S+]([O-])[C@H]2C3CC[C@H]2C[C@](O)(CO)C3)c1` (stereo partly drawn) [Example 138], the concentration giving a half-maximal response (EC50) was above 400 nM. For `O=C(Nc1cc(F)c(F)c(F)c1)c1ccc(Cl)c(S(=O)(=O)[C@H]2C3CC[C@H]2CC(O)C(O)C3)c1` (stereo partly drawn) [Example 120], the half-maximal effective concentration (EC50) is below 100 nM. As to `O=C(Nc1cc(F)c(F)c(F)c1)c1ccc(Cl)c(S(=O)(=O)C[C@H]2OC[C@H](O)[C@@H]2O)c1` [Example 108], the EC50 was above 400 nM. The same measure, in the same setting: the value for `O=C(Nc1cc(F)c(F)c(F)c1)c1ccc(Cl)c([S+]([O-])C2CCC=CCC2)c1` (stereo not drawn) [Example 64] was above 400 nM.
